Publication PMC12340723, “Validation of Hv1 channel functions in BV2 microglial cells using small molecule modulators” (Frontiers in Cellular Neuroscience, 2025)

Experiments:
[1] = target: T1, Voltage-gated proton channel Hv1 (Mus musculus, UniProt Q3U2S8); experiment: whole-cell patch clamp at +[…] mV in BV2 cells; BCECF pH-recovery assay, effect abolished by Hv1 shRNA; assay type: cell-based
T1 construct: gene Hvcn1; endogenous Hv1 in BV2 microglial cells
T1 sequence (Q3U2S8 1-269): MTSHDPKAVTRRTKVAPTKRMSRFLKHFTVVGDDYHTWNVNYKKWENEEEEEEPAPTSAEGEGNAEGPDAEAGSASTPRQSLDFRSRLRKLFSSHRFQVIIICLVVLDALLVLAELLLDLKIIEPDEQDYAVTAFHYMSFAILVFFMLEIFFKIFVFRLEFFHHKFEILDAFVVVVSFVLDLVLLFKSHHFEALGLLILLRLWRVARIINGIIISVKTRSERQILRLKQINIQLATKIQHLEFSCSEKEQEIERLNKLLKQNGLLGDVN

[2] = target: T1, Voltage-gated proton channel Hv1; experiment: whole-cell patch clamp at +[…] mV in BV2 cells (activator); BCECF pH-recovery assay, effect abolished by Hv1 shRNA; assay type: cell-based

| IC50 [1] | EC50 [2] | SMILES |
| --- | --- | --- |
| 2.6 ± 1.1 µM |  | O=C(CC1Sc2ccccc2NC1=O)Nc1ccc(Cl)cc1 (centres unmarked) [YHV98-4] |
|  | 8.41 ± 1.9 µM | O=C(CC1Sc2ccccc2NC1=O)Nc1ccccc1Cl (centres unmarked) [S-023-0515] |
